The values that follow come from ChEMBL document CHEMBL1124039, “Angiotensin-converting enzyme inhibitors. 2. Perhydroazepin-2-one derivatives” (J Med Chem, 1988).

The structures appear in SMILES notation.

The target of this assay is T1, Angiotensin-converting enzyme (Oryctolagus cuniculus, UniProt P12822).
T1 sequence (P12822 whole entry): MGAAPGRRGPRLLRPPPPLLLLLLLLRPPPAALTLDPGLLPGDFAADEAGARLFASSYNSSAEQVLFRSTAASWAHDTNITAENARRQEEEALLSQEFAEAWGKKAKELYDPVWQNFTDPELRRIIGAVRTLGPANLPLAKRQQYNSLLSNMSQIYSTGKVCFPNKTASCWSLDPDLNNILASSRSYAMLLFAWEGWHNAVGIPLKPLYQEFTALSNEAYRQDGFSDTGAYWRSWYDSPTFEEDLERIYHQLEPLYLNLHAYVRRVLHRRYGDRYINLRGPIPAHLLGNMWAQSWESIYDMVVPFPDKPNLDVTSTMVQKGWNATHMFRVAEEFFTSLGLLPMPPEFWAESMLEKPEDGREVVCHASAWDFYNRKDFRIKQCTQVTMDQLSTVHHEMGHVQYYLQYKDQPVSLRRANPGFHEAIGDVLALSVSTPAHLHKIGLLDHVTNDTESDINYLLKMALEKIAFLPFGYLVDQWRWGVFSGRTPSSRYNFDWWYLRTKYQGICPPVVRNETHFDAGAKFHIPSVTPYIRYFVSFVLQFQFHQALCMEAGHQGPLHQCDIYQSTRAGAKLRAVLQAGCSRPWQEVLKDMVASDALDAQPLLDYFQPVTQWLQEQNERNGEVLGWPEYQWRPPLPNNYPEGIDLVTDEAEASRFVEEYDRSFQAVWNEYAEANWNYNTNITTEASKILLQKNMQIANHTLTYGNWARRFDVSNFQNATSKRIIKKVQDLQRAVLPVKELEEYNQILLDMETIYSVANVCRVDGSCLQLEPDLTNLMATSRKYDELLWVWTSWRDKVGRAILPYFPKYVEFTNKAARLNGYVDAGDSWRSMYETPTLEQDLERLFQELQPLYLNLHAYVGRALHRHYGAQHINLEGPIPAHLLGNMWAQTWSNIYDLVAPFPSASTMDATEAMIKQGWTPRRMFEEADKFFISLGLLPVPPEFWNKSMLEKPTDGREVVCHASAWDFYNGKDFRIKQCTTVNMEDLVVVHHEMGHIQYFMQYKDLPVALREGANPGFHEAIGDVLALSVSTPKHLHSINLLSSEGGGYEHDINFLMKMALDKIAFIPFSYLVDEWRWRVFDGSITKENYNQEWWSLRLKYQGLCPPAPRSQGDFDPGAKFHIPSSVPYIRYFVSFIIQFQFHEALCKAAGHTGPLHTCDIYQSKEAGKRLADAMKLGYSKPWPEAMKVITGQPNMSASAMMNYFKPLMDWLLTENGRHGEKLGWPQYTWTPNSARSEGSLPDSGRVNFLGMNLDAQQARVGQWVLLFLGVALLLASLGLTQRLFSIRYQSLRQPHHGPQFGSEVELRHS
The assay can be described thus: Concentration required for 50% inhibition of rabbit lung Angiotensin I converting enzyme with 5 mM hippuryl-histidyl-leucine as substrate.
In turn, `O=C(O)CN1C[C@@H](c2ccccc2)CC[C@H](N[C@@H](CCc2ccccc2)C(=O)O)C1=O` had a concentration for half-maximal inhibition (IC50) of 3.1 nM.

Compound `O=C(O)CN1C[C@H](c2ccccc2)CC[C@H](N[C@@H](CCc2ccccc2)C(=O)O)C1=O` gave a 50% inhibitory concentration (IC50) of 4.3 nM. The compound `O=C(O)CN1C(=O)[C@@H](N[C@@H](CCc2ccccc2)C(=O)O)CCC[C@@H]1c1ccccc1` came in with an IC50 of 16.2 nM. For `O=C(O)CN1C(=O)[C@@H](N[C@@H](CCc2ccccc2)C(=O)O)CCC[C@H]1c1ccccc1`, 3.6 nM corresponded to half-maximal inhibition (IC50).

What is called IC50 is the midpoint of a concentration-inhibition curve. A lower IC50 goes with higher potency.
